# Experimental data: ChEMBL document CHEMBL4396971, “Discovery of potent and orally bioavailable indazole-based glucagon receptor antagonists for the treatment of type 2 diabetes” (Bioorg Med Chem Lett, 2019)
# The source made the active and inactive calls. The rule behind the calls is not given here.
# Legend:
# [1] = Stability in rat liver microsomes assessed as parent compound remaining at 1 uM incubated for 10 mins; type: ADME, Microsome; conditions: read-out: Stability
# [2] = Stability in mouse liver microsomes assessed as parent compound remaining at 1 uM incubated for 10 mins; type: ADME, Microsome; conditions: for remaining at 10 min, 1 µM: liver microsomes, read-out: Stability
# [3] = Stability in dog liver microsomes assessed as parent compound remaining at 1 uM incubated for 10 mins; type: ADME, Canis lupus familiaris, Microsome; conditions: for remaining at 10 min, 1 µM: liver microsomes, read-out: Stability
# [4] = Stability in human liver microsomes assessed as parent compound remaining at 1 uM incubated for 10 mins; type: ADME, Microsome; conditions: read-out: Stability
# Glucagon receptor [5] = target: T1, Glucagon receptor (Homo sapiens, UniProt P47871); assay: Potency index, ratio of Ki of 3-[[4-[(1R)-1-[5-[2-Chloro4-(trifluoromethyl)phenyl]indazol-1-yl]-3-methyl-butyl]benzoyl]amino]propanoic acid to Ki of compound for human full length GCGR transfected in HEK293 cells assessed as reduction in glucagon-induced cAMP response by LANCE TR-FRET assay; type: functional, cell-based
# T1 sequence (P47871 whole entry): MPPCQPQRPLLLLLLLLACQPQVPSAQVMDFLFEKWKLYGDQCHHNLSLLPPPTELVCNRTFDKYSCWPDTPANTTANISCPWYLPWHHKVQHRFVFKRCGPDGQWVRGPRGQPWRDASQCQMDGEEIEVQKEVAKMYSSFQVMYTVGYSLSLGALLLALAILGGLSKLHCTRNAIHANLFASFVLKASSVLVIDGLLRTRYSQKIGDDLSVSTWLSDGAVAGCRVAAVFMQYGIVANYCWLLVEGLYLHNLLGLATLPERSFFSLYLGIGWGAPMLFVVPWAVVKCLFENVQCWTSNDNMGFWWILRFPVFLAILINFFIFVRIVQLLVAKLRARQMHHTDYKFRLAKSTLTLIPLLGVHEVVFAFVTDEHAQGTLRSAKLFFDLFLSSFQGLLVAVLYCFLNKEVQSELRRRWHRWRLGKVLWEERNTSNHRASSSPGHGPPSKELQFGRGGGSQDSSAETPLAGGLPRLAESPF
# Glucagon receptor [6] = target: T1, Glucagon receptor; assay: Inhibition of human full length GCGR transfected in HEK293 cells assessed as reduction in glucagon-induced cAMP response by LANCE TR-FRET assay; type: functional, cell-based
# [7] = Clearance in C57 mouse at 5 mg/kg, iv or 20 mg/kg, po; type: ADME, organism-based; conditions: in vivo
# Cytochrome P450 2D6 = Cytochrome P450 2D6 (Homo sapiens, UniProt P10635); assay: Inhibition of CYP2D6 (unknown origin) using dextromethorphan as substrate; type: ADME
# Chain of Cytochrome P450 2D6 (P10635 whole entry): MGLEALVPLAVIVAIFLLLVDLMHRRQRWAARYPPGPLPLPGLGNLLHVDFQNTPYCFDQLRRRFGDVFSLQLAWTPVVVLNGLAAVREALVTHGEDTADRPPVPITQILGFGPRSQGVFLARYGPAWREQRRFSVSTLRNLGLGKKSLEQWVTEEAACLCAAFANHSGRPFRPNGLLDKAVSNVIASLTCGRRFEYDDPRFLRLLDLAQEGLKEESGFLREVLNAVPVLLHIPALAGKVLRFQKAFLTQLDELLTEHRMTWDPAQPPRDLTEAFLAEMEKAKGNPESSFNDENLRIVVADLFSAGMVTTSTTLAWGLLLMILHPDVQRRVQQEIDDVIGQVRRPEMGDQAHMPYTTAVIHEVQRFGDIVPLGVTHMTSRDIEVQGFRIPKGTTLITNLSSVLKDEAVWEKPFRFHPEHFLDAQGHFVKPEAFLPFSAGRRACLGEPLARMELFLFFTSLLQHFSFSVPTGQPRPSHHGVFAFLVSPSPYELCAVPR
# Canis familiaris [8] = assay: Antidiabetic activity in Beagle dog assessed as reduction in blood glucose AUC at 10 mg/kg, po administered via gavage as single dose 90 mins prior to glucagon challenge by glucometer analysis; type: functional, organism-based; conditions: Canis lupus familiaris
# [9] = Volume of distribution at steady state in Sprague-Dawley rat at 2 mg/kg, iv or 10 mg/kg, po; type: ADME, organism-based; conditions: in vivo, read-out: Vdss
# Cytochrome P450 1A2 = target: T2, Cytochrome P450 1A2 (Homo sapiens, UniProt P05177); assay: Inhibition of CYP1A2 (unknown origin) using phenacetin as substrate; type: ADME
# T2 sequence (P05177 whole entry): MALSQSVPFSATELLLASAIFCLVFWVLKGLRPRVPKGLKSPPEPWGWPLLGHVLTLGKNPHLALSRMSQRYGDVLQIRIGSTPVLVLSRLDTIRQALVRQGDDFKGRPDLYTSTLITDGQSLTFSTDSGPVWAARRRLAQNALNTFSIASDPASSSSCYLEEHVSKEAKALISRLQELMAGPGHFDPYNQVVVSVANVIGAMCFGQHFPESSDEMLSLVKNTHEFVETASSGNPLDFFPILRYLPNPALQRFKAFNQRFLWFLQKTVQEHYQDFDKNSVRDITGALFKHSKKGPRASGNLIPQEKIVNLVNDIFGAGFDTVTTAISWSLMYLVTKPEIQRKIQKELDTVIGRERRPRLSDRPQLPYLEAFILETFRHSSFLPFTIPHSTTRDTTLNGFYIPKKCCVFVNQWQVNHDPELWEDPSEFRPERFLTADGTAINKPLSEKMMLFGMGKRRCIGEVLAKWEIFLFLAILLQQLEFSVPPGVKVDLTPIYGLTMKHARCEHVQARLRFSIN
# Cytochrome P450 3A4 [10] = target: T3, Cytochrome P450 3A4 (Homo sapiens, UniProt P08684); assay: Inhibition of CYP3A4 (unknown origin) using testosterone as substrate; type: ADME
# T3 sequence (P08684 whole entry): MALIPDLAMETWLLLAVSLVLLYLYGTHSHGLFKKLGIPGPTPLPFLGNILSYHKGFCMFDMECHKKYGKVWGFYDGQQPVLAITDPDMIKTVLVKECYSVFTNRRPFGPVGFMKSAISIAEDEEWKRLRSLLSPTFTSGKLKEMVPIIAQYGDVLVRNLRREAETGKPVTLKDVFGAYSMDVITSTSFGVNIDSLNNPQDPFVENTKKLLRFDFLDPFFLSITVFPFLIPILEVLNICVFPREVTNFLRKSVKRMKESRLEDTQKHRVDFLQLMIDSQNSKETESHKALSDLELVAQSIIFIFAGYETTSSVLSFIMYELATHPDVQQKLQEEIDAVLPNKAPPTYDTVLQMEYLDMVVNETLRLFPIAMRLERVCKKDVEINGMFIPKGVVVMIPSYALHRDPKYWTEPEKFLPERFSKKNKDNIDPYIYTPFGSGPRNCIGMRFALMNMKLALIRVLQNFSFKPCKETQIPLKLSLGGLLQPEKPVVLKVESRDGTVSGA
# [11] = Cmax in Sprague-Dawley rat at 2 mg/kg, iv or 10 mg/kg, po; type: ADME, organism-based; conditions: in vivo
# [12] = Protein binding in human plasma at 1 uM; type: ADME, cell-free; conditions: read-out: PPB
# [13] = Volume of distribution at steady state in C57 mouse at 5 mg/kg, iv or 20 mg/kg, po; type: ADME, organism-based; conditions: in vivo, read-out: Vdss
# [14] = Half life in Sprague-Dawley rat at 2 mg/kg, iv; type: ADME, organism-based; conditions: in vivo
# [15] = Half life in C57 mouse at 5 mg/kg, iv; type: ADME, organism-based; conditions: in vivo
# [16] = AUClast in Sprague-Dawley rat at 2 mg/kg, iv or 10 mg/kg, po; type: ADME, organism-based; conditions: in vivo
# [17] = Clearance in Sprague-Dawley rat at 2 mg/kg, iv or 10 mg/kg, po; type: ADME, organism-based; conditions: in vivo
# [18] = AUClast in C57 mouse at 5 mg/kg, iv or 20 mg/kg, po; type: ADME, organism-based; conditions: in vivo
# Cytochrome P450 3A4 [19] = target: T3, Cytochrome P450 3A4; assay: Inhibition of CYP3A4 (unknown origin) using midazolam as substrate; type: ADME
# [20] = Half life in C57 mouse at 20 mg/kg, po; type: ADME, organism-based; conditions: in vivo
# [21] = Half life in Sprague-Dawley rat at 10 mg/kg, po; type: ADME, organism-based; conditions: in vivo
# [22] = AUClast in dog at 2 mg/kg, iv or 10 mg/kg, po; type: ADME, organism-based, Canis lupus familiaris; conditions: in vivo
# [23] = Half life in dog at 10 mg/kg, po; type: ADME, organism-based, Canis lupus familiaris; conditions: in vivo
# Cytochrome P450 2C19 = Cytochrome P450 2C19 (Homo sapiens, UniProt P33261); assay: Inhibition of CYP2C19 (unknown origin) using S-Mephenytoin as substrate; type: ADME
# Chain of Cytochrome P450 2C19 (P33261 whole entry): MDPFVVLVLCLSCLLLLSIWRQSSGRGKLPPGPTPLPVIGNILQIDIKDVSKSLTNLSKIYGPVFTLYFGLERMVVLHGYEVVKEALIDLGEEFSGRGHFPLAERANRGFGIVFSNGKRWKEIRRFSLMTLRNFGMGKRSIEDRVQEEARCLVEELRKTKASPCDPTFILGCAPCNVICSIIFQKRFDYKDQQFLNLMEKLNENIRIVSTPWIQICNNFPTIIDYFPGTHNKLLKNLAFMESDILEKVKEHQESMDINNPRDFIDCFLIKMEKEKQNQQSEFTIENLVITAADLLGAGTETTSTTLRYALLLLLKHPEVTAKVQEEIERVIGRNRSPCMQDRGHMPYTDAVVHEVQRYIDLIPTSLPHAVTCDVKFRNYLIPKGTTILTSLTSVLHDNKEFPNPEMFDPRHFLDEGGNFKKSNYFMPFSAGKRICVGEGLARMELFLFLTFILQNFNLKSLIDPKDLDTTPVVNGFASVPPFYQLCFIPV
# [24] = Cmax in dog at 2 mg/kg, iv or 10 mg/kg, po; type: ADME, organism-based, Canis lupus familiaris; conditions: in vivo
# [25] = Oral bioavailability in C57 mouse at 20 mg/kg; type: ADME, organism-based; conditions: in vivo
# [26] = Oral bioavailability in Sprague-Dawley rat at 10 mg/kg; type: ADME, organism-based; conditions: in vivo
# [27] = Antagonist activity at GCGR in dog hepatocytes assessed as inhibition of glucagon-induced cAMP by LANCE TR-FRET assay; type: cell-based, Canis lupus familiaris
# [28] = Clearance in dog at 2 mg/kg, iv or 10 mg/kg, po; type: ADME, organism-based, Canis lupus familiaris; conditions: in vivo
# Canis familiaris [29] = assay: Antidiabetic activity in Beagle dog assessed as reduction in blood glucose level at 10 mg/kg, po administered via gavage as single dose 90 mins prior to glucagon challenge measured up to 60 mins post glucagon challenge by glucometer analysis; type: functional, organism-based; conditions: Canis lupus familiaris
# [30] = Volume of distribution at steady state in dog at 2 mg/kg, iv or 10 mg/kg, po; type: ADME, organism-based, Canis lupus familiaris; conditions: in vivo, read-out: Vdss
# Cytochrome P450 2C9 = Cytochrome P450 2C9 (Homo sapiens, UniProt P11712); assay: Inhibition of CYP2C9 (unknown origin) using tolbutamide as substrate; type: ADME
# Chain of Cytochrome P450 2C9 (P11712 whole entry): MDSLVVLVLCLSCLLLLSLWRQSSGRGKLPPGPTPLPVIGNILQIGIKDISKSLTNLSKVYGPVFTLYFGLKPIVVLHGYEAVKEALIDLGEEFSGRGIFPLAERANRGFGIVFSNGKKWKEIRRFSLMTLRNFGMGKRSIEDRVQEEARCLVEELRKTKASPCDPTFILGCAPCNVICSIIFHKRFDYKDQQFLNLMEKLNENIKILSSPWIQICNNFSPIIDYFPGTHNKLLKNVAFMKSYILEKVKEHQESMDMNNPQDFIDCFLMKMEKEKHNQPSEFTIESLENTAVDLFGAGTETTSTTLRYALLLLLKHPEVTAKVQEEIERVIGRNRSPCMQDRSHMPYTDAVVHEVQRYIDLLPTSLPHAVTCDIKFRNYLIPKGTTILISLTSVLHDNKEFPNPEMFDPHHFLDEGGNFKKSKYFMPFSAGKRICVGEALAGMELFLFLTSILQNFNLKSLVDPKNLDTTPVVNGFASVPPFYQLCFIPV
# [31] = Half life in dog at 2 mg/kg, iv; type: ADME, organism-based, Canis lupus familiaris; conditions: in vivo
# [32] = Oral bioavailability in dog at 10 mg/kg; type: ADME, organism-based, Canis lupus familiaris; conditions: in vivo
# [33] = Cmax in C57 mouse at 5 mg/kg, iv or 20 mg/kg, po; type: ADME, organism-based; conditions: in vivo
compound,measurement,setting,value
COc1c(-c2ccc(C(F)(F)F)cc2Cl)ccc2nn([C@@H](CC(C)C)c3ccc(C(=O)NCCC(=O)O)cc3)cc12,"remaining at 10 min, 1 µM",[1],84%
same,"remaining at 10 min, 1 µM",[2],82%
same,"remaining at 10 min, 1 µM",[3],76%
same,"remaining at 10 min, 1 µM",[4],89%
CC(C)C[C@@H](c1ccc(C(=O)NCCC(=O)O)cc1)n1ncc2cc(-c3ccc(C(F)(F)F)cc3Cl)ccc21,"remaining at 10 min, 1 µM",[1],81%
same,"remaining at 10 min, 1 µM",[2],107%
same,Stability,"[3]; microsomes, 10 min, 1 µM",121%
same,Ratio Ki,Glucagon receptor [5],15
same,"remaining at 10 min, 1 µM",[4],59%
CC(C)CC(c1ccc(C(=O)NCCC(=O)O)cc1)n1ncc2cc(-c3ccc(C(F)(F)F)cc3)ccc21 (racemic),Ki,Glucagon receptor [6],0.125 µM
Cc1cc(C(F)(F)F)ccc1-c1cc2cnn([C@@H](CC(C)C)c3ccc(C(=O)NCCC(=O)O)cc3)c2cc1C,clearance,[7],1.61 mL/min/kg
same,IC50,Cytochrome P450 2D6,> 10 µM
same,inhibition,Canis familiaris [8],Active
same,Vd,[9],2.67 L/kg
same,IC50,Cytochrome P450 1A2,> 10 µM
same,IC50,Cytochrome P450 3A4 [10],> 10 µM
same,Cmax,[11],0.8 µM
same,"remaining at 10 min, 1 µM",[1],116%
same,fraction unbound at 1 µM,[12],0.0001
same,Vd,[13],0.87 L/kg
same,half-life,[14],1.6 h
same,half-life,[15],7.2 h
same,AUC(0-t),[16],6.5 µM·h
same,"remaining at 10 min, 1 µM",[2],70%
same,clearance,[17],26.8 mL/min/kg
same,AUC(0-t),[18],242 µM·h
same,IC50,Cytochrome P450 3A4 [19],> 10 µM
same,half-life,[20],6.5 h
same,half-life,[21],3.1 h
same,AUC(0-t),[22],422 µM·h
same,"remaining at 10 min, 1 µM",[3],80%
same,half-life,[23],16.9 h
same,IC50,Cytochrome P450 2C19,> 10 µM
same,Cmax,[24],27.7 µM
same,bioavailability,[25],70.1%
same,bioavailability,[26],51.9%
same,"remaining at 10 min, 1 µM",[4],81%
same,Ki,[27],0.03 µM
same,clearance,[28],0.21 mL/min/kg
same,inhibition,Canis familiaris [29],Active
same,Vd,[30],0.22 L/kg
same,IC50,Cytochrome P450 2C9,> 10 µM
same,half-life,[31],13.3 h
same,bioavailability,[32],39.5%
same,Cmax,[33],18.9 µM
CC(C)C[C@@H](c1ccc(C(=O)NCCC(=O)O)cc1)n1ncc2cc(-c3ccc(C(F)(F)F)cc3)ccc21,Ki,Glucagon receptor [6],0.46 µM
COc1c(-c2ccc(C(F)(F)F)cc2Cl)ccc2c1cnn2[C@@H](CC(C)C)c1ccc(C(=O)NCCC(=O)O)cc1,"remaining at 10 min, 1 µM",[1],97%
same,"remaining at 10 min, 1 µM",[2],87%
same,"remaining at 10 min, 1 µM",[3],64%
same,"remaining at 10 min, 1 µM",[4],93%
Cc1c(-c2ccc(C(F)(F)F)cc2Cl)ccc2c1cnn2[C@@H](CC(C)C)c1ccc(C(=O)NCCC(=O)O)cc1,"remaining at 10 min, 1 µM",[1],87%
same,Stability,"[2]; microsomes, 10 min, 1 µM",121%
same,"remaining at 10 min, 1 µM",[3],31%
same,"remaining at 10 min, 1 µM",[4],89%
